We go through nine compounds from ChEMBL document CHEMBL2016457, “Discovery of potent and orally bioavailable 17β-hydroxysteroid dehydrogenase type 3 inhibitors” (Bioorg Med Chem, 2012).

For assay [1], the target named is T1, Estrogen receptor (Homo sapiens) (UniProt P03372).
T1 sequence (whole entry): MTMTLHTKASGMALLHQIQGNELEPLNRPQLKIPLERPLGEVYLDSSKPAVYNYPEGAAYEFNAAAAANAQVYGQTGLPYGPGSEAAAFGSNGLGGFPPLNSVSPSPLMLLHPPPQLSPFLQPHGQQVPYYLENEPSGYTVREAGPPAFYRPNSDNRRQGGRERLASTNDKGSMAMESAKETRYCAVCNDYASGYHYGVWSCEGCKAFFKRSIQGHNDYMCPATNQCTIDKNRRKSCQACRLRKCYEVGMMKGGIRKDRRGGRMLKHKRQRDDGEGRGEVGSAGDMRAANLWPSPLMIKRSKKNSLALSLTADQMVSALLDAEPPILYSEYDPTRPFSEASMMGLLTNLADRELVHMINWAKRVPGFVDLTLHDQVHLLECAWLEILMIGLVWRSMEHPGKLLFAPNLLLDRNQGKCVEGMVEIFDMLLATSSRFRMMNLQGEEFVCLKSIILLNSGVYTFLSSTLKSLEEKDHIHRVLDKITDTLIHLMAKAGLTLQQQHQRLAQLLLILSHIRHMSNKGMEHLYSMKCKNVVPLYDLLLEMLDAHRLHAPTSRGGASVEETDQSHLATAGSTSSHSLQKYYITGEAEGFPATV
Put plainly: Agonist activity at human Estrogen receptor ERalpha expressed in human HeLa cells assessed as DHT-induced response after 40 hrs by luciferase/beta-galactosidase-based reporter gene assay. The format is functional, cell-based. On the technique in general: Reporter assays use an easily measured gene product as a stand-in for the process of interest.

The target in assay [2] is T2, Androgen receptor (Homo sapiens) (UniProt P10275).
T2 sequence (whole entry): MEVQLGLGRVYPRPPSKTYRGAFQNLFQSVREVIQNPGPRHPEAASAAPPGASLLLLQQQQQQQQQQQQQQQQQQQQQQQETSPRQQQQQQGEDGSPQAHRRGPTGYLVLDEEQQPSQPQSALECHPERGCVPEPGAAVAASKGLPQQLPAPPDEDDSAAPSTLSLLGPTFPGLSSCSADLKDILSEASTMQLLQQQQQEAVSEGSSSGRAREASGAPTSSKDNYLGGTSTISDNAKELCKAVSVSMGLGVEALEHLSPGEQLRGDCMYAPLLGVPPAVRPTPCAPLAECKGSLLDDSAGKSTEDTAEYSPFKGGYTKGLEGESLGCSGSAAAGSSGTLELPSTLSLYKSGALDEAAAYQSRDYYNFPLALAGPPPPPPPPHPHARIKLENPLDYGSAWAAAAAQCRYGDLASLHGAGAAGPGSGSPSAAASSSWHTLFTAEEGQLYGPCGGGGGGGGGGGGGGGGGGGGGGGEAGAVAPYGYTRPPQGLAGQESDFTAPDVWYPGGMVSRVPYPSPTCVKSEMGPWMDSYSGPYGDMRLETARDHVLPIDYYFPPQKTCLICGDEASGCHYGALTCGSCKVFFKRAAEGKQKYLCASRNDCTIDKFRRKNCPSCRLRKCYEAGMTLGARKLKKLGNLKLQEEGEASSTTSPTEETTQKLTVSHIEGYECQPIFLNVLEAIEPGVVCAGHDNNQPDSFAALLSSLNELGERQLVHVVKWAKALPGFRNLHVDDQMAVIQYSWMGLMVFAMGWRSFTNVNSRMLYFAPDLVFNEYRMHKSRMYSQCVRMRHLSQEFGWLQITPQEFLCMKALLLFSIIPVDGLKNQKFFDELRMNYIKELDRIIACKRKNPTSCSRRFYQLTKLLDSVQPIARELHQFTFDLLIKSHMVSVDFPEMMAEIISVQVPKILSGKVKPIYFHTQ
Nature of the assay: Agonist activity at human androgen receptor expressed in human HeLa cells assessed as DHT-induced response after 40 hrs by luciferase/beta-galactosidase-based reporter gene assay. Format: functional, cell-based.

The target of assay [3] is T2, Androgen receptor (Homo sapiens). Nature of the assay: Antagonist activity at human androgen receptor expressed in human HeLa cells assessed as inhibition of DHT-induced response after 40 hrs by luciferase/beta-galactosidase-based reporter gene assay. The format is functional, cell-based.
For assay [4], the target named is T3, 17-beta-hydroxysteroid dehydrogenase type 1 (Homo sapiens) (UniProt P14061).
T3 sequence (whole entry): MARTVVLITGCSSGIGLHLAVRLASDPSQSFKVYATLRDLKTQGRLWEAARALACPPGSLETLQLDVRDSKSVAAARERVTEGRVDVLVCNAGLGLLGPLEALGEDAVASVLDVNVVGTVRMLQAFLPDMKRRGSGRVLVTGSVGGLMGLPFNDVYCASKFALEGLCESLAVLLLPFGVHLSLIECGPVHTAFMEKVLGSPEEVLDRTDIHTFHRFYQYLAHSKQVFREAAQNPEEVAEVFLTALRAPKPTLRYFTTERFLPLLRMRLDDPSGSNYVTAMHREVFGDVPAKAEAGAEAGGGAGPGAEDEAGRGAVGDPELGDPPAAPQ
Put plainly: Inhibition of human recombinant 17-beta-HSD1 expressed in human HeLa cells using estrone as substrate preincubated for 30 mins prior substrate addition measured after 120 mins by spectrophotometry. Format: cell-based.

Assay [5] deals with T4, 17-beta-hydroxysteroid dehydrogenase type 3 (Homo sapiens, UniProt P37058).
T4 sequence (P37058 whole entry): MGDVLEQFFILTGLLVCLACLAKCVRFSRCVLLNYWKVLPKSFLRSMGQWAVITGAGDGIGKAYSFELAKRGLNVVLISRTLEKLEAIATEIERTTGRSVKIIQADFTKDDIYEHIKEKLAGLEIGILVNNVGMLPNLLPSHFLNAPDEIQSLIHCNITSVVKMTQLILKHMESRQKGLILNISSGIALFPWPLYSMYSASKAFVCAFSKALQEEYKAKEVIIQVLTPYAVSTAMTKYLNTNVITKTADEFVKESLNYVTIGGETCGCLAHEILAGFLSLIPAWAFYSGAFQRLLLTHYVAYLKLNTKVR
Description: Inhibition of human recombinant 17-beta-HSD3 expressed in human HeLa cells using androstenedione as substrate preincubated for 30 mins prior substrate addition measured after 120 mins by spectrophotometry

Assay [6] deals with T1, Estrogen receptor (Homo sapiens). Put plainly: Antagonist activity at human ERalpha receptor expressed in human HeLa cells assessed as inhibition of DHT-induced response after 40 hrs by luciferase/beta-galactosidase-based reporter gene assay. The format is functional, cell-based.
For assay [7], the target named is T5, Glucocorticoid receptor (Homo sapiens) (UniProt P04150).
T5 sequence (whole entry): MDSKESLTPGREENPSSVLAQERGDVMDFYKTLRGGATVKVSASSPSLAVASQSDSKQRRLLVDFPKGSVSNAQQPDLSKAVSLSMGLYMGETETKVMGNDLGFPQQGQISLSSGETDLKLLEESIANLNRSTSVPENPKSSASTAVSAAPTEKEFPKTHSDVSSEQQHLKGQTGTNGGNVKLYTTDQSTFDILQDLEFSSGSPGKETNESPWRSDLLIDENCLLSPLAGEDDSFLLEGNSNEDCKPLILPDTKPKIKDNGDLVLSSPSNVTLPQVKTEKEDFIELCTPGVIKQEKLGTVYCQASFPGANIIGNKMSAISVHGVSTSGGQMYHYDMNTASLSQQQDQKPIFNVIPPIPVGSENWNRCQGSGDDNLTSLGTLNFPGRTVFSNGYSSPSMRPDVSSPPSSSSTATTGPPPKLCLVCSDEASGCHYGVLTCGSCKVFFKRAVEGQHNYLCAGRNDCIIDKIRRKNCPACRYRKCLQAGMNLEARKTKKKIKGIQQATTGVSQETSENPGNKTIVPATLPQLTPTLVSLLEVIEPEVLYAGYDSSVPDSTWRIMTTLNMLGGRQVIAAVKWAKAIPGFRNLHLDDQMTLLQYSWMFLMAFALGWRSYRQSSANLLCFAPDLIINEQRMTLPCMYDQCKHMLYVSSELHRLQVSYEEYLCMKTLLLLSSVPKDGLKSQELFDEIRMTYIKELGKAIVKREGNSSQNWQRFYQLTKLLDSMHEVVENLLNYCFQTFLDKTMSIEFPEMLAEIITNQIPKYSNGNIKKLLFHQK
Put plainly: Antagonist activity at human GR receptor expressed in human HeLa cells assessed as inhibition of DHT-induced response after 40 hrs by luciferase/beta-galactosidase-based reporter gene assay. The format is functional, cell-based.

The target of assay [8] is T6, 17-beta-hydroxysteroid dehydrogenase type 2 (Homo sapiens) (UniProt P37059).
T6 sequence (whole entry): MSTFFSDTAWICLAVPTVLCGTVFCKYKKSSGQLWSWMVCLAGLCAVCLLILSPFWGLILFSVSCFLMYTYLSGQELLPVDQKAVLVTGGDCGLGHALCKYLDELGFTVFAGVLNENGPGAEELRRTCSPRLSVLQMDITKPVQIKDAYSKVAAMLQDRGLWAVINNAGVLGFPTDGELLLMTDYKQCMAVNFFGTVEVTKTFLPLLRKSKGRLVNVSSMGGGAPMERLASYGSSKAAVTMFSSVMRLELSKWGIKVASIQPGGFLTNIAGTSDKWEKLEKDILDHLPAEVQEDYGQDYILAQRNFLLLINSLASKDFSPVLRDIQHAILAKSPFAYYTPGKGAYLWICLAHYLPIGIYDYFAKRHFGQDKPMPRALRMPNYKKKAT
Put plainly: Inhibition of human recombinant 17-beta-HSD2 expressed in human HeLa cells using estradiol as substrate preincubated for 30 mins prior substrate addition measured after 120 mins by spectrophotometry. Format: cell-based.

Assay [9] deals with T5, Glucocorticoid receptor (Homo sapiens). Nature of the assay: Agonist activity at human Glucocorticoid receptor expressed in human HeLa cells assessed as DHT-induced response after 40 hrs by luciferase/beta-galactosidase-based reporter gene assay. The format is functional, cell-based.

Calls of active or inactive are those of the source. How the calls were made is not given here.

As to `O=C1O/C(=C\c2ccc(O)c(Br)c2)C(=O)N1c1cccnc1`, the result in [1], in assay [2], in assay [3], in [6], in assay [7] and in [9] was inactive. Moreover, the inhibition result in assay [4] and in assay [8] was “inactive” each time. Moreover, in assay [5], the 50% inhibitory concentration (IC50) was determined as 22 nM.
In the case of `C#CCN1C(=O)/C(=C/c2ccc(O)c(Br)c2)SC1=S`, the result in assay [1], in assay [2], in assay [3], in assay [6], in [7] and in assay [9] was inactive. In addition, the inhibition result in [4] and in assay [8] was “inactive” each time. For the same compound, in [5], the IC50 was found to be 300 nM.
As to `COc1ccccc1N1C(=O)/C(=C/c2ccc(O)c(Br)c2)OC1=S`, the result in assay [1], in assay [2], in [3], in assay [6], in assay [7] and in assay [9] was inactive. For the same compound, the inhibition entry in assay [4] and in [8] was “inactive” in each case. For the same compound, the IC50 in assay [5] stood at 60 nM.
Consider `O=C(c1ccc(N2C(=O)O/C(=C\c3ccc(O)c(Br)c3)C2=O)cc1)N1CCOCC1`, for which the outcome in assay [1], in [2], in [3], in [6], in assay [7] and in assay [9] was inactive. The inhibition result in assay [4] and in [8] was “inactive” throughout. In assay [5], this compound registered an IC50 of 300 nM.
In the case of `N#Cc1ccc(N2C(=O)/C(=C/c3ccc(O)c(Br)c3)OC2=S)cc1`, the outcome in assay [1], in assay [2], in [3], in assay [6], in assay [7] and in [9] was inactive. The inhibition result in assay [4] and in assay [8] was “inactive” throughout. Also, in assay [5], the 50% inhibitory concentration (IC50) was determined as 19 nM.
`COCCN1C(=O)/C(=C/c2ccc(O)c(Br)c2)SC1=S`: the outcome in assay [1], in assay [2], in [3], in [6], in assay [7] and in assay [9] was inactive. In addition, the inhibition entry in assay [4] and in assay [8] was “inactive” throughout. The same compound yielded an IC50 in [5] of 190 nM.
On to `Cc1ccc(N2C(=O)O/C(=C\c3ccc(O)c(Br)c3)C2=O)cn1`, for which the result in assay [1], in assay [2], in [3], in assay [6], in [7] and in assay [9] was inactive. For the same compound, the inhibition result in assay [4] and in assay [8] was “inactive” in each case. Besides, half-maximal inhibition in assay [5] (IC50) was put at 67 nM.
For `O=C1/C(=C/c2ccc(O)c(Br)c2)OC(=S)N1c1ccccc1`, the outcome in [1], in assay [2], in [3], in assay [6], in assay [7] and in assay [9] was inactive. The inhibition entry in [4] and in assay [8] was “inactive” in each case. The same compound displayed a half-inhibitory concentration (IC50) in assay [5] of 6 nM.
Turning to `COc1ccc(N2C(=O)/C(=C/c3ccc(O)c(Cl)c3)OC2=S)cc1`, the result in assay [1], in assay [2], in assay [3], in assay [6], in [7] and in assay [9] was inactive. For the same compound, the inhibition result in assay [4] and in [8] was “inactive” in each case. In addition, in assay [5], 4 nM corresponded to half-maximal inhibition (IC50).

In general, IC50 refers to the point on the concentration scale where inhibition reaches its midpoint. Low values mean greater potency, high ones weaker potency.
